In patent US20210214731A1, “METHODS FOR TREATING CANCER” (President and Fellows of Harvard College, priority 2019, published 2021):

Legend:
[1] = tested on: MCT4 expression in MLL-AF9 AML; experiment: MCT4 mRNA (Q-PCR) and protein (Western blot) expression in MLL-AF9 AML upon inhibitor treatment; format: cell-based, mouse; settings: MLL-AF9 AML in vitro (FIG. 9G)
Protocol: Cells were lyzed in 1×RIPA lysis buffer (Cell Signaling) with protease and phosphatase inhibitors. Cell lysate was centrifuged at 13000 rpm for 10 mins. Supernatant was collected and denatured in SDS-loading buffer with boiling for 10 mins. Cell lysates were separated, transferred and blotted with primary and horseradish peroxidase (HRP)-conjugated secondary antibodies (Supplemental Table 4). Hybridization signals were visualized with Amersham ECL Western blot detection reagents (GE Healthcare Amersham) or Luminata Forte Western HRP substrate (EMD Millipore) and captured by Hyperfilm™ ECL (GE Healthcare Amersham). Densitometric analysis of the bands was performed by ImageJ 1.8.0v.
(§1) Cell was washed twice with PBS and subjected to RNA purification using RNeasy Plus Mini Kit (Qiagen) according to the manufacturers' protocol. Extracted total RNA was then subjected to reverse transcription using SuperScript IV VILO Master Mix (Thermo Fisher Scientific) according to the manufacturers' protocol. Synthesized cDNA was then used for the Q-PCR using gene-specific primers (Supplemental Table 3) and SYBR™ Green PCR Master Mix. The reaction was run and analyzed by StepOnePlus Real-Time PCR System.

[2] = tested on: MLL-AF9 AML; experiment: In vitro growth of MLL-AF9 AML; format: cell-based, mouse; settings: for effect of inhibitor on in vitro growth of MLL-AF9 with MCT4-KO: combined with MCT4-KO versus control gRNA (FIG. 6D)
Protocol: Retroviral transduction model of MLL-AF9 or HoxA9-Meis1 AML were generated by infecting normal mouse GMP (Lin^−Kit^+Sca-1^−CD34^+CD16/32^+) (FASC antibodies summarized in Supplemental Table 4) by MSCV constructs. Infected cells were injected into normal C57BL/6J. Leukemic BM was harvested and expanded ex vivo in RPMI-1640 media supplemented with 10% FBS, 1% P/S, recombinant IL-3 (10 ng/ml) and SCF (100 ng/ml).

[3] = tested on: MCT4 promoter in MLL-AF9 AML; experiment: ChIP-PCR of enrichment on MCT4 promoter in MLL-AF9 AML; format: cell-based, mouse
Protocol: ChIP assays were performed in hematopoietic cells as previously described (Kim et al., 2008) using Pierce™ Protein G Agarose (Thermo Fisher Scientific). In brief, the cell suspension was fixed with 1% formaldehyde for 7 mins then neutralized by glycine. The fixed cell was washed with cold PBS. The cell pellet was then sonicated in SDS ChIP buffer. The supernatant was collected and pre-cleared with protein G agarose. After pre-clearing, a ChIP reaction using different antibodies (1:100, summarized in Supplemental Table 4) was added to the lysate and incubated at 4° C. overnight Immunoprecipitated complexes were successively washed with buffers and then eluted using SDS elution buffer at 65° C. overnight to reverse crosslink protein-DNA complex. The samples were treated with RNase A and Proteinase K, then extracted by phenol-chloroform isoamyl alcohol and precipitated. Finally, the pellet was resuspended in 20 μl TE buffer.
The DNA was then subjected to Q-PCR analysis using specific primers (Supplemental Table 3) and SYBR™ Green PCR Master Mix (Thermo Fisher Scientific). Input genomic DNA was used for the reference sample. The reaction was run and analyzed by StepOnePlus Real-Time PCR System (Thermo Fisher Scientific). Mouse or human Gfi1b was included as a negative control.

[4] = tested on: MCT4 expression in THP-1; experiment: Q-PCR of MCT4 mRNA expression in THP-1; format: cell-based, human; settings: THP-1 (FIG. 10G)
From the text: (§2) Human AML cell lines (K562, KG1, ML2, Kasumi-1, MOLM-13, MOLM-14, MV4-11, THP-1, MONO-MACE, HL-60, NB4, U937 and NOMO-1) were purchased from the American Type Culture Collection (ATCC) and cultured in RPMI-1640 media supplemented with 10% FBS and 1% penicillin/streptomycin (P/S).
as §1

[5] = tested on: MCT4 expression in NOMO-1; experiment: Q-PCR of MCT4 mRNA expression in NOMO-1; format: cell-based, human; settings: NOMO-1 (FIG. 10G)
From the text: as §2, §1

[6] = tested on: THP-1; experiment: In vitro growth of THP-1; format: cell-based, human; settings: THP-1 (FIG. 10H)
From the text: as §2

[7] = tested on: NOMO-1; experiment: In vitro growth of NOMO-1; format: cell-based, human; settings: NOMO-1 (FIG. 10H)
From the text: as §2

[8] = tested on: MLL-AF9 AML; experiment: Glycolysis and Mito stress analysis (Seahorse ECAR/OCR); format: cell-based, mouse; settings: MLL-AF9 AML in vitro, LDHA inhibition (FIG. 6A)
Protocol: Glycolysis stress and Mito stress of normal Lin^− BM cells and AML were examined by Seahorse XF analyzer (Agilent) according to the manufacturers' protocol. In brief, the suspension cells were seeded onto a Cell-Tak (Corning) coated Seahorse XF Microplate in Seahorse XF Base Medium with appropriate supplement (Glycolysis Stress test: 1 mM glutamine; Mito stress test: 1 mM pyruvate, 2 mM glutamine and 10 mM glucose) and centrifuged at 200×g for 5 mins Different compounds were injected for the ECAR and OCR profiling (Glycolysis Stress test: 10 mM glucose, 1 μM Oligomycin and 50 mM 2DG; Mito Stress test: 1 μM Oligomycin, 0.5 μM FCCP and 0.5 μM Antimycin A). The data was eventually analyzed by Seahorse Wave Desktop 2.6 (Agilent).

CC(C)N(C[C@H]1O[C@@H](n2cnc3c(N)ncnc32)[C@H](O)[C@@H]1O)[C@H]1C[C@@H](CCc2nc3cc(C(C)(C)C)ccc3[nH]2)C1 [EPZ-5676]
MCT4 expression [1]: not seen

Cc1sc2c(c1C)C(c1ccc(Cl)cc1)=N[C@@H](CC(=O)OC(C)(C)C)c1nnc(C)n1-2 [JQ-1]
growth of MLL-AF9 AML ([2]; JQ-1 treatment (FIG. 9H)): reduced the growth of MLL-AF9 AML in dose dependent manner
MCT4 expression [1]: suppressed
BRD4 enrichment on the MCT4 promoter ([3]; mouse MLL-AF9 AML (FIG. 9I)): reduced
H3K27ac enrichment on the MCT4 promoter ([3]; mouse MLL-AF9 AML (FIG. 9J)): reduced
expression of MCT4 [4]: suppressed
expression of MCT4 [5]: suppressed
growth [6]: suppressed
growth [7]: suppressed

CCCc1c(O)c(O)c(C(=O)O)c2cc(Cc3ccccc3)c(C)cc12 [FX11]
extracellular acidification rate (ECAR) [8]: decreased
oxygen consumption rate (OCR) [8]: increased

NC(=O)c1ccc(N)nc1 [6AN, 6-aminonicotinamide]
effect of inhibitor on in vitro growth of MLL-AF9 with MCT4-KO [2]: increased the effect

O=CC[C@@H](O)[C@H](O)[C@H](O)CO [2DG, 2-deoxyglucose]
effect of inhibitor on in vitro growth of MLL-AF9 with MCT4-KO [2]: increased the effect
